Results as given in US6417174B1, “Inhibitors of β-lactamases and uses therefor” (Northwestern University, priority 1997, dated 2002).
Like-named read-outs stand apart in the source and are kept apart here.

Columns and labels:
[1] = tested on: MC4100/AmpC-Enter (OmpC-); assay: Antibacterial activity, wider range of bacteria; format: cell-based, E. coli; conditions: Table 6
Procedure: (§1) Bacterial cell culture testing was performed and interpreted following the guidelines of the National Committee for Clinical Laboratory Standards (National Committee for Clinical Laboratory Standards. Methods for Dilution Antimicrobial Susceptibility Tests for Bacteria that Grow Aerobically. Approved Standard M7-A3. National Committee for Clinical Laboratory Standards, Villanova, Pa. 1993). After incubation, the growth of the cells was visually inspected. The minimum inhibitory concentration (MIC) is the lowest concentration where there no cell growth was observed.
(§2) All bacterial strains and plasmids are available from Jesus Blazquez and Fernando Baquero, Servicio de Microbiologia, Hospital Ramon y Cajal National Institute of Health, Madrid, Spain.

MC4 100/AmpC-Enter = assay: Antibacterial activity, wider range of bacteria; format: cell-based, E. coli; conditions: Table 6
Procedure: as §1, §2

[2] = tested on: MC4100/AmpC-Enter (OmpR-); assay: Antibacterial activity, wider range of bacteria; format: cell-based, E. coli; conditions: Table 6
Procedure: as §1, §2

[3] = tested on: MC4100/AmpC-Enter (OmpF-); assay: Antibacterial activity, wider range of bacteria; format: cell-based, E. coli; conditions: Table 6
Procedure: as §1, §2

[4] = tested on: Ps. aeruginosa-3 (clinical isolate); assay: Antibacterial activity, wider range of bacteria; format: cell-based, Pseudomonas aeruginosa; conditions: Table 6
Procedure: as §1, §2

[5] = tested on: Ps. aeruginosa-2 (clinical isolate); assay: Antibacterial activity, wider range of bacteria; format: cell-based, Pseudomonas aeruginosa; conditions: Table 6
Procedure: as §1, §2

MC4100/AmpC-E. coli = assay: Antibacterial activity, wider range of bacteria; format: cell-based; conditions: Table 6
Procedure: as §1, §2

[6] = tested on: MC4100/AmpC-E. coli (OmpR-); assay: Antibacterial activity, wider range of bacteria; format: cell-based; conditions: Table 6
Procedure: as §1, §2

[7] = tested on: Citrobacter freundii derrepressed (clinical isolate); assay: Antibacterial activity, wider range of bacteria; format: cell-based; conditions: Table 6
Procedure: as §1, §2

[8] = tested on: Enterobacter cloacae derrepressed (clinical isolate); assay: Antibacterial activity, wider range of bacteria; format: cell-based; conditions: Table 6
Procedure: as §1, §2

[9] = tested on: MC4100/AmpC-E. coli (OmpC-); assay: Antibacterial activity, wider range of bacteria; format: cell-based; conditions: Table 6
Procedure: as §1, §2

[10] = tested on: Pseudomonas aeruginosa-1 (clinical isolate); assay: Antibacterial activity, wider range of bacteria; format: cell-based; conditions: Table 6
Procedure: as §1, §2

[11] = tested on: MC4100/AmpC-E. coli (OmpF-); assay: Antibacterial activity, wider range of bacteria; format: cell-based; conditions: Table 6
Procedure: as §1, §2

[12] = tested on: E. coli derrepr. (clinical isolate); assay: Antibacterial activity, wider range of bacteria; format: cell-based; conditions: Table 6
Procedure: as §1, §2

[13] = tested on: β-lactamase derepressed strain of Enterobacter cloacae (Ent-Der); assay: microbe, parasite or virus in culture; format: cell-based; conditions: for MIC of ceftazidime plus inhibitor: proportion 4/1, given as CAZ/inhibitor; for MIC of amoxicillin plus inhibitor: Table 4A, proportion 4/1; on MIC of ceftazidime plus inhibitor: values in µg/ml
Procedure: (§3) After incubation, the growth of the cells was visually inspected. The minimum inhibitory concentration (MIC) is the lowest concentration where there no cell growth was observed.
(§4) The following strains were used: Enterobacter cloacae cell line with derepressed β-lactamase production (Ent-Der), and Escherichia coli RYC1000 (araD139 D lacU169 rpsL D rib7 thiA gyrA recA56) cell lines, harboring the plasmid pBGS19 (with no β-lactamase), or the β-lactamase containing plasmids pBGAmpC (AmpC β-lactamase from E. coli; Eco-AmpC), or pBGAmpC-MHN (AmpC β-lactamase from Enterobacter cloacae; Eco-AmpCEnt). […] TEM-10 and TEM-24 differ from TEM-1 due to the following point substitutions: TEM-10 (R164S, E240K); TEM-24 (L102K, L162S, S235T, A237K). TEM-10 and TEM-24 also differ from TEM-1 in being extended spectrum enzymes (i.e., they react with a greater range of substrates than TEM-1). Also tested were clinical isolates of Pseudomonas aeruginosa. All bacterial strains and plasmids are available from Jesus Blazquez and Fernando Baquero, Servicio de Microbiologia, Hospital Ramon y Cajal, National Institute of Health, Madrid, Spain.
(§5) Several ratios, including 1:1, 2:1, 4:1, and 1:3, of β-lactam antibiotic (amoxicillin (AX) or ceftazidime (CAZ)) to boronic acid compound were used in the assays. Tazobactam (TAZO), a clinically used β-lactamase inibitor, was used as a positive control.

[14] = tested on: E. coli RYC1000 harboring plasmid pBGAmpC-MHN (AmpC β-lactamase of Enterobacter cloacae); assay: microbe, parasite or virus in culture; format: cell-based, Escherichia coli; conditions: for MIC of ceftazidime plus inhibitor: proportion 4/1, given as CAZ/inhibitor; for MIC of amoxicillin plus inhibitor: Table 4A, EC-AmpCEn, proportion 4/1; on MIC of ceftazidime plus inhibitor: values in µg/ml
Procedure: as §3, §4, §5

[15] = tested on: E. coli RYC1000 harboring plasmid pBGTEM-24 (TEM-24 β-lactamase); assay: microbe, parasite or virus in culture; format: cell-based, Escherichia coli; conditions: for MIC of ceftazidime plus inhibitor: proportion 4/1, given as CAZ/inhibitor; on MIC of ceftazidime plus inhibitor: values in µg/ml
Procedure: as §3, §4, §5

[16] = tested on: E. coli RYC1000 harboring plasmid pBGS19 (no β-lactamase); assay: microbe, parasite or virus in culture; format: cell-based, Escherichia coli; conditions: for MIC of ceftazidime plus inhibitor: proportion 4/1; for MIC of inhibitor used alone without ceftazidime: Table 3B; for MIC of inhibitor used alone without amoxicillin: Table 4B, EC, not tested above 128 μg/ml, “256” indicates no inhibition of cell growth
Procedure: as §3, §4, §5

[17] = molecular target: T1, TEM-1 β-lactamase from E. coli (Escherichia coli, UniProt P62593); assay: Inhibition of TEM-1 β-lactamase, spectrophotometric assay (FAP substrate); format: biochemical
T1 construct: gift: Natalie Strynadka, University of Alberta

[18] = molecular target: AmpC β-lactamase from E. coli (Escherichia coli, UniProt P00811); assay: biochemical; format: biochemical
[19] = tested on: E. coli RYC1000 harboring pBGTEM-1 producing TEM-1 β-lactamase (EC-T1); assay: microbe, parasite or virus in culture; format: cell-based, Escherichia coli; conditions: EC-T1; for MIC of amoxicillin plus inhibitor: Table 4A, proportion 4/1
Procedure: as §3, §4, §5

[20] = tested on: E. coli RYC1000 harboring pBGAmpC-E. coli producing AmpC (ECR-AmpCEc); assay: microbe, parasite or virus in culture; format: cell-based, Escherichia coli; conditions: ECR-AmpCEc; for MIC of amoxicillin plus inhibitor: Table 4A, proportion 4/1
Procedure: as §3, §4, §5

[21] = tested on: E. coli RYC1000 harboring pBGTEM-10 producing TEM-10 β-lactamase (EC-T10); assay: microbe, parasite or virus in culture; format: cell-based, Escherichia coli; conditions: EC-T10; for MIC of amoxicillin plus inhibitor: Table 4A, proportion 4/1
Procedure: as §3, §4, §5

[22] = tested on: E. coli RYC1000 harboring a plasmid coding for a mutant of AmpC from Enterobacter (ECR-AmpCEnM); assay: microbe, parasite or virus in culture; format: cell-based, Escherichia coli; conditions: for MIC of amoxicillin plus inhibitor: Table 4A, ECR-AmpCEnM, proportion 4/1
Procedure: as §3, §4, §5

[23] = Tables 2A/2B, pH 7.0, 25° C., 100 μM cephalothin, read-out: Ki E. coli AmpC
[24] = Table 4B, not tested above 128 μg/ml, “256” indicates no inhibition of cell growth

Chain of AmpC β-lactamase from E. coli (P00811 20-377): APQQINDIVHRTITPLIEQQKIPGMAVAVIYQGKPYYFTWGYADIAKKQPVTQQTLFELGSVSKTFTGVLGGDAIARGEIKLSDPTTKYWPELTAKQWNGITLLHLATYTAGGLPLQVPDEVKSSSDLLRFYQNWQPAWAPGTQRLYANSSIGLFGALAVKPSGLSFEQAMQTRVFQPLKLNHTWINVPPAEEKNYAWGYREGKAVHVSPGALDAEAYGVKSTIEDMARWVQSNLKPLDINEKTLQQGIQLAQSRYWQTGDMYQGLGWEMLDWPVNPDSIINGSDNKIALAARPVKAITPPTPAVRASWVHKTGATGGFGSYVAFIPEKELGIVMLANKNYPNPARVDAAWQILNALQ
T1 sequence (P62593 24-286 limits assumed): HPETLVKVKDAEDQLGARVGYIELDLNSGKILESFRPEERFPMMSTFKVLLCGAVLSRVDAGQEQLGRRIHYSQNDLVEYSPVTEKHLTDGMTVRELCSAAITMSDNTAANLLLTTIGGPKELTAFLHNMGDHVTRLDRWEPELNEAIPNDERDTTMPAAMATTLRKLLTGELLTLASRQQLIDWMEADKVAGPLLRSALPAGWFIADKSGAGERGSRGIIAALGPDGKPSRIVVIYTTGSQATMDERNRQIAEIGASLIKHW

SMILES: CC(C)(O/N=C(\C(=O)N[C@@H]1C(=O)N2C(C(=O)[O-])=C(C[n+]3ccccc3)CS[C@H]12)c1csc(N)n1)C(=O)O [CAZ, ceftazidime, reference compound]
- MIC, agent alone (CAZ alone / BZB only) [1]: 16
- MIC, agent alone (CAZ alone / BZB only) (MC4 100/AmpC-Enter): 32
- MIC, agent alone (CAZ alone / BZB only) [2]: 32
- MIC, agent alone (CAZ alone / BZB only) [3]: 32
- MIC, agent alone (CAZ alone / BZB only) [4]: 64
- MIC, agent alone (CAZ alone / BZB only) [5]: 32
- MIC, agent alone (CAZ alone / BZB only) (MC4100/AmpC-E. coli): 8
- MIC, agent alone (CAZ alone / BZB only) [6]: 8
- MIC, agent alone (CAZ alone / BZB only) [7]: 16
- MIC, agent alone (CAZ alone / BZB only) [8]: 16
- MIC, agent alone (CAZ alone / BZB only) [9]: 16
- MIC, agent alone (CAZ alone / BZB only) [10]: 8
- MIC, agent alone (CAZ alone / BZB only) [11]: 32
- MIC, agent alone (CAZ alone / BZB only) [12]: 16
- MIC ([13]; Enterobacter cloacae, Table 3A, Ent. Der., CAZ alone, read-out: MIC of ceftazidime (CAZ)): 512 µg/mL
- MIC ([14]; Enterobacter cloacae, Table 3A, AmpC-MHN, CAZ alone, read-out: MIC of ceftazidime (CAZ)): 32 µg/mL
- MIC ([15]; Escherichia coli, Table 3A, CAZ alone, read-out: MIC of ceftazidime (CAZ)): 256 µg/mL
- MIC ([16]; Escherichia coli, Table 3A, pBGS19, CAZ alone, read-out: MIC of ceftazidime (CAZ)): < 0.5 µg/mL

SMILES: C1COB([C@@H]2CCOC2)OCCN1 [DETHFB, diethanolamine-(3R)-(+)-tetrahydrofurnylboronate]
- Ki ([17]; Tables 2A/2B, pH 7.0, 25° C., 100 μM FAP, N.I. = no inhibition observed at an inhibitor concentration of 100 μM, read-out: Ki E. coli TEM-1): 27000 nM
- Ki [18, 23]: 1100 nM
- MIC of ceftazidime plus inhibitor ([13]; Table 3A, Ent. Der.): 32/8
- MIC of amoxicillin plus inhibitor ([13]; Ent-Der.): 256 µg/mL
- MIC of amoxicillin plus inhibitor [19]: 512 µg/mL
- MIC of amoxicillin plus inhibitor [20]: 128 µg/mL
- MIC of ceftazidime plus inhibitor ([14]; Table 3A, AmpC-MHN): 4/1
- MIC of amoxicillin plus inhibitor [14]: 32 µg/mL
- MIC of amoxicillin plus inhibitor [21]: 512 µg/mL
- MIC of ceftazidime plus inhibitor ([15]; Table 3A): 256/64
- MIC of ceftazidime plus inhibitor ([16]; Table 3A, pBGS19): 0.5 µg/mL
- MIC of inhibitor used alone without ceftazidime ([16]; pBGS19): >512 µg/mL
- MIC of inhibitor used alone without amoxicillin [16]: 256 µg/mL
- MIC of amoxicillin plus inhibitor [22]: 64 µg/mL

SMILES: OB(O)c1ccc(-c2ccc(B(O)O)cc2)cc1 [BIPD, 4,4′-biphenyldiboronic acid]
- Ki [17]: > 100000 nM
- Ki ([18]; Example 1, read-out: Ki for AmpC): 180 ± 20 nM
- Ki [18, 23]: 600 nM
- MIC of ceftazidime plus inhibitor ([13]; Table 3A, Ent. Der.): 128/32
- MIC of inhibitor used alone without ceftazidime ([13]; Table 3B, Ent. Der.): >256 µg/mL
- MIC of amoxicillin plus inhibitor ([13]; Ent-Der.): 256 µg/mL
- MIC of inhibitor used alone without amoxicillin ([13]; Table 4B, Ent-Der., not tested above 128 μg/ml, “256” indicates no inhibition of cell growth): 256 µg/mL
- MIC of amoxicillin plus inhibitor [19]: 256 µg/mL
- MIC of inhibitor used alone without amoxicillin [19, 24]: 256 µg/mL
- MIC of amoxicillin plus inhibitor [20]: 128 µg/mL
- MIC of inhibitor used alone without amoxicillin [20, 24]: 128 µg/mL
- MIC of ceftazidime plus inhibitor ([14]; Table 3A, AmpC-MHN): 8/2
- MIC of inhibitor used alone without ceftazidime ([14]; Table 3B, AmpC-MHN): >256 µg/mL
- MIC of amoxicillin plus inhibitor [14]: 128 µg/mL
- MIC of inhibitor used alone without amoxicillin ([14]; Table 4B, ECAmpCEn, not tested above 128 μg/ml, “256” indicates no inhibition of cell growth): 256 µg/mL
- MIC of amoxicillin plus inhibitor [21]: 256 µg/mL
- MIC of inhibitor used alone without amoxicillin [21, 24]: 256 µg/mL
- MIC of ceftazidime plus inhibitor ([15]; Table 3A): 256/64
- MIC of inhibitor used alone without ceftazidime ([15]; Table 3B): >256 µg/mL
- MIC of ceftazidime plus inhibitor ([16]; Table 3A, pBGS19): <0.12 µg/mL
- MIC of inhibitor used alone without ceftazidime ([16]; pBGS19): >256 µg/mL
- MIC of inhibitor used alone without amoxicillin [16]: 256 µg/mL
- MIC of amoxicillin plus inhibitor [22]: 128 µg/mL
- MIC of inhibitor used alone without amoxicillin ([22]; Table 4B, ECRAmpCEnM, not tested above 128 μg/ml, “256” indicates no inhibition of cell growth): 256 µg/mL
